In patent US20190151229A1, “USE OF AN ESSENTIAL OIL OF EVERLASTING FLOWER IN ORDER TO INCREASE OR RESTORE TACTILE PERCEPTION” (LABORATOIRES M&L, priority 2016, published 2019):

Tested on: human sensory neurons
Assay: Effect on neurite growth in co-culture of human sensory neurons and keratinocytes
Type: cell-based
Conditions: NGF at 50 ng/ml, 6 days, vs control medium, p<0.05
Protocol: Sensory neurons are derived from iPS cells (induced Pluripotent Stem cells) which are themselves obtained from human fibroblasts. The iPSs were seeded into six-well plates coated with a thin layer of Matrigel® (Corning) in a proportion of 250 000 cells per well in a differentiation medium consisting of DMEM-F12 (Panbiotech) supplemented with 10% of Knockout Serum Replacement (KSR, Life technologies), 5 μM of CHIR 99021 (Tocris), 0.1 μM of retinoic acid (Sigma), 1 μg/ml of EPO (Erythropoietin; Peprotech), a cocktail of central differentiation pathway inhibitors and 1% of PS antibiotics (Penicilin-Streptomycin; Panbiotech). The cells were maintained in culture for 6 days at 37° C. and 5% CO2. The culture medium was changed every 2 days. Under these culture conditions, the iPSs differentiate into human sensory neurons.
At this stage, the cells were dissociated using accutase (Sigma Aldrich) for 10 minutes at 37° C. The reaction was stopped by adding culture medium. The cell suspension was centrifuged for 5 minutes at 1200 rpm. […]
Twenty photographs per culture well were taken with the automatic microscope (InCell 2000; GE Healthcare) at a ×20 magnification and the cell bodies of the sensory neurons were counted. […]

NGF: reference molecule; nerve growth factor, naturally present in the epithelium, known to stimulate neurite extension in vitro
increase in the length of the projections of the human sensory neurons: +22.8%
